# Measured values from patent US20070197388A1, “Haloperoxidase treatment to control algae” (Buckman Laboratories International, Inc., priority 2006, published 2007).
# Experiments:
# Type in all cases: cell-based
# [1] = test system: Chlorella sp. (ATCC 7516); experiment: Evaluation of algaecidal activity (MIC) and checkerboard synergy, Chlorella sp.
# Procedure: Evaluation of […] Activity: This test method provides a technique for screening newly synthesized compounds for their effectiveness to inhibit (repress) algae growth. […] Apparatus: Test tubes, 18-150 mm. Sterilized test tubes are required. Incubator, capable of a constant (±2° C.) temperature and light regulation. Reagents and Materials: [table] Inoculum: Cell suspension from a culture grown in modified Allen's medium for 14 days or as needed to attain a desired cell mass of Chlorella sp. (ATCC 7516) or Phormidium faveolarum (UTEX 427). The inoculum is calibrated at 82% transmittance measured at 590 nanometers wavelength before inoculation. Procedure: Medium preparation: Modified Allen's medium (Allen, A. A., 1968). [table] Sterilize the medium in the autoclave for 20 minutes at 15 pounds pressure (121° C.). After autoclaving, cool medium to 45-50° C. and dispense 5 ml of medium per test tube, then add the compound and the inoculum. Compound incorporation: Prepare a stock solution in water of the compound to be tested. The concentration of the stock solution is dependent on the largest dosage desired to be tested. Dilute the stock solution to obtain dosages smaller than that chosen for the stock solution. A maximum amount of 100 microliters of stock solution or the corresponding dilution should be added per test tube. Inoculation: Add 100 microliters of inoculum per test tube, per type of medium and type of inoculum. Incubation: Place the test tubes containing the treatments in an incubator set at 24° C. Light is provided by plant growth fluorescent tubes set to provide 16 h of light and 8 h of darkness. […] The minimum inhibitory concentration (MIC) of the compound is the smallest dosage showing negative algae growth. Synergy Evaluation: Synergy was measured by checkerboards dilutions (Yan and Hancock, 2001), in which one compound is diluted along the rows of test tubes and the other is diluted along the columns. This method focuses on looking for a reduction in the MIC of each component in the presence of the other.
# [2] = test system: Phormidium faveolarum (UTEX 427); experiment: Evaluation of algaecidal activity (MIC) and checkerboard synergy, Phormidium faveolarum; settings: alone, system with 1 ppm a.i. Hydrogen Peroxide, 14 days at 24° C.
# Procedure: Evaluation of Algaecidal Activity: This test method provides a technique for screening newly synthesized compounds for their effectiveness to inhibit (repress) algae growth.
# Apparatus: Test tubes, 18-150 mm. Sterilized test tubes are required.
# Incubator, capable of a constant (±2° C.) temperature and light regulation.
# Inoculum: Cell suspension from a culture grown in modified Allen's medium for 14 days or as needed to attain a desired cell mass of Chlorella sp. (ATCC 7516) or Phormidium faveolarum (UTEX 427). The inoculum is calibrated at 82% transmittance measured at 590 nanometers wavelength before inoculation.
# Procedure: Medium preparation: Modified Allen's medium (Allen, A. A., 1968).
# Sterilize the medium in the autoclave for 20 minutes at 15 pounds pressure (121° C.). After autoclaving, cool medium to 45-50° C. and dispense 5 ml of medium per test tube, then add the compound and the inoculum. […]
# Synergy Evaluation: Synergy was measured by checkerboards dilutions (Yan and Hancock, 2001), in which one compound is diluted along the rows of test tubes and the other is diluted along the columns. […] The result is expressed as the Fractional Inhibitory Concentration Index (FIC), calculated as follows: FIC=[A]/MICA+[B]/MICB where, • MICA and MICB=MICs of the compounds A and B alone • [A] and [B]=MICs of the compounds A and B when in combination.
# [3] = test system: Enterobacter aerogenes (ATCC 13048); experiment: Evaluation of bactericidal activity (MIC, >=90% kill) and checkerboard synergy, Enterobacter aerogenes; settings: Klebsiella aerogenes, ATCC13048; alone; system with 2 ppm a.i. Hydrogen Peroxide; 18 hours at 37° C.; read-out: MICA = MIC of Dichloramine B
# Procedure: Synergy Evaluation: Synergy was measured by checkerboards dilutions (Yan and Hancock, 2001), in which one compound is diluted along the rows of test tubes and the other is diluted along the columns. This method focuses on looking for a reduction in the MIC of each component in the presence of the other. The result is expressed as the Fractional Inhibitory Concentration Index (FIC), calculated as follows: FIC=[A]/MICA+[B]/MICB where, • MICA and MICB=MICs of the compounds A and B alone • [A] and [B]=MICs of the compounds A and B when in combination.
# Evaluation of Bactericidal Activity: This method is suitable for use in evaluating the antibacterial properties of chemicals by determining their MIC value. The MIC value represents the Minimum Inhibitory Concentration defined as the lowest level of compound required to achieve a ≧90% kill of a given organism.
# Equipment • 1. Test tubes, 18×150 mm disposable culture tubes sterile • 2. Sterile 1 ml and 10 ml pipettes • 3. Incubator capable of maintaining a temperature of 37° C.±1° C. • 4. Autoclave • 5. pH meter • 6. […]
# Rating of tubes via plate count method: The Pour Plate Count agar was prepared as described in Standard Methods (American Public Health Association; 1995). […] Colonies formed in or on the plate count medium within 48±2 h were counted as described in Standard Methods, and the results were reported as CFU/milliliter. […]
# [4] = alone, system with 1 ppm a.i. Hydrogen Peroxide, 14 days at 24° C.
molecule,measurement,setting,value
"CCCCCCCCCCCCCCCC[N+](C)(C)CC.[Br-] [EHDB, Ethyl-n-Hexadecyl Dimethylammonium Bromide]",MICA = MIC of EHDB,[1]; [4],0.5 MICA mg a.i./l
same,MIC,"[2]; 336 h, read-out: MICA = MIC of EHDB",0.5 µg/mL
Benzalkonium Chloride [reference compound],dosage controlling algae growth,"[1]; Example 7, reinoculated only after 14 days, incubated 14 days (result not shown)",2 ppm a.i.
same,MICA = MIC of Benzalkonium Chloride,"[1]; alone, reinoculated after 14 days and treated with 1 ppm of hydrogen peroxide, incubated 14 days",2 MICA mg a.i./l
same,MICA = MIC of Benzalkonium Chloride,[1]; [4],1 MICA mg a.i./l
same,MICA = MIC of Benzalkonium Chloride,[2],2 MICA mg a.i./l
"O=S(=O)(c1ccccc1)N(Cl)Cl [Dichloramine B, N,N-dichlorobenzenesulfonamide]",MIC,[3],5 µg/mL
same,MIC Dichloramine B combined with Haloperoxidase and Hydrogen Peroxide,"[1]; combined with 1 ppm product of Haloperoxidase (Novozyme) and 2 ppm a.i. Hydrogen Peroxide, 14 days at 24° C.",< 0.07 ppm a.i.
"Myeloperoxidase: a myeloperoxidase enzyme obtained from Biodesign International (protein, UniProt P05164 165-745, looked up) Myeloperoxidase: VTCPEQDKYRTITGMCNNRRSPTLGASNRAFVRWLPAEYEDGFSLPYGWTPGVKRNGFPVALARAVSNEIVRFPTDQLTPDQERSLMFMQWGQLLDHDLDFTPEPAARASFVTGVNCETSCVQQPPCFPLKIPPNDPRIKNQADCIPFFRSCPACPGSNITIRNQINALTSFVDASMVYGSEEPLARNLRNMSNQLGLLAVNQRFQDNGRALLPFDNLHDDPCLLTNRSARIPCFLAGDTRSSEMPELTSMHTLLLREHNRLATELKSLNPRWDGERLYQEARKIVGAMVQIITYRDYLPLVLGPTAMRKYLPTYRSYNDSVDPRIANVFTNAFRYGHTLIQPFMFRLDNRYQPMEPNPRVPLSRVFFASWRVVLEGGIDPILRGLMATPAKLNRQNQIAVDEIRERLFEQVMRIGLDLPALNMQRSRDHGLPGYNAWRRFCGLPQPETVGQLGTVLRNLKLARKLMEQYGTPNNIDIWMGGVSEPLKRKGRVGPLLACIIGTQFRKLRDGDRFWWENEGVFSMQQRQALAQISLPRIICDNTGITTVSKNNIFMSNSYPRDFVNCSTLPALNLASWREAS",MIC (ppm product),"[1]; 2 ppm a.i. hydrogen peroxide as substrate, 4 ppm a.i. ammonium bromide as electron donor",<0.1 ppm product
